{"source": "patent US20260266837A1", "about": "“Methods for Cancer Recurrence Detection and Treatment Thereof” (Institut Curie, priority 2022, published 2026)", "key": {"[1]": {"system": "MDA-MB-468 cells, persister genes", "test": "scRNA-seq expression changes induced by EZH2i-1 in the absence of chemotherapy", "type": "cell-based, human", "method": "Cell lines, culture conditions and drug treatments. MDA-MB-468 cells were cultured in DMEM (Gibco-BRL, Ref: 11966025), supplemented with 10% heat-inactivated fetal calf serum (Gibco-BRL, Ref: 10270-106). HCC38 and BT20 cell lines were cultured in RPMI 1640 (Gibco-BRL, Ref: 11875085), supplemented with 10% heat-inactivated fetal calf serum. […] Cells were treated with 5 μM of 5-FU (Sigma, Ref: F6627) alone or in combination with KDM6A/Bi or EZH2i for indicated days. For EZH2i, cells were pretreated with UNC 1999, UNC 2400 or GSK 126 for 10 days before the addition of 5-FU for an additional 21 days (FIG. 4 and Extended FIG. 8).\nSingle-cell RNA-seq. For each single cell suspension (DMSO-DO- #1, 5-FU-D33- #1, 5-FU-D214- #1, 5-FU-D67- #2, 5-FU-D171- #2, 5-FU-D50- #3, 5-FU-D77- #3 and 5-FU-D202- #3) or PDX dissociated cells (PDX_95, PDX_39 or PDX_172, untreated and persister cells), approximately 3,000 cells were loaded on a Chromium Single Cell Controller Instrument (Chromium Single Cell 3′v3, 10× Genomics, Ref: PN-1000075) according to the manufacturer's instructions. Samples and libraries were prepared according to the manufacturer's instructions. Libraries were sequenced on a NovaSeq 6000 (Illumina) in PE 28-8-91 with a coverage of 50,000 reads/cell.\nSingle-cell RNA-seq analysis. The scRNA-seq sequencing files were preprocessed using the cellRanger pipeline. For PDX samples, files were aligned against hg19 and mm10 genomes and only cells with a majority of human reads were retained for the analysis. For the MDA-MB-468 human cell line, sequences were aligned against the hg38 genome only. Cells with less than 3,000 […] for MDA-MB-468 or 2,500 for PDX or more than 8,000 detected genes, or more than 100,000 reads were filtered out, as well as cells with a percent of mitochondrial reads greater than 15% or a percentage of spike in greater than 5%. Normalization, dimensionality reduction and Louvain clustering was done using monocle3 (v0.2.2)^52 keeping the first 50 Principal Components (PC). Cell cycle was determined for each cell using Seurat (v3.1.5)^53. […] Differentially expressed genes were obtained by comparing raw gene expression values using edgeR GLM statistical model^54. […] For MDA-MB-468 samples, as the number of cells was high, a subset of 500 cells per cluster was subsampled from each cluster for the differential analysis and downstream steps. Intra-cluster correlation scores were calculated using Pearson's correlation score, with a random subsampling of n=500 cells per cluster."}, "[2]": {"system": "MDA-MB-468, BT20 and HCC38", "test": "Number of persister cells after EZH2i pre-treatment and 5-FU", "type": "cell-based, human", "conditions": "10 days pre-treatment, then 5-FU for 21 days", "method": "Cell lines, culture conditions and drug treatments. […] All cell lines were cultured in a humidified 5% CO2 atmosphere at 37° C., and were tested as mycoplasma negative. […] Cells were treated with 5 μM of 5-FU (Sigma, Ref: […]) alone or in combination with KDM6A/Bi or EZH2i for indicated days. […] Cell proliferation, doubling time and IC50. MDA-MB-468, HCC38 and BT20 cells were stained with Trypan Blue (Invitrogen, Ref: T10282) exclusion test, and counted using a Countess automated cell counter (Invitrogen, Ref: C10228) at indicated time of treatment (FIG. 4a and Extended FIG. 8a/d/f)."}}}
{"molecule": "CCCc1cc(C)[nH]c(=O)c1CNC(=O)c1cc(-c2ccc(N3CCN(C(C)C)CC3)nc2)cc2c1cnn2C(C)C", "note": "[EZH2i-1]", "values": [{"measurement": "activation of persister genes with depletion of H3K27me3 upon 5-FU treatment", "setting": "[1]; 23/37 genes, no chemotherapy", "result": 62, "unit": "%"}, {"measurement": "over-expression of persister genes independently of any H3K27me3 enrichment in untreated cells", "setting": "[1]; 78/131 genes, no chemotherapy", "result": 60, "unit": "%"}, {"measurement": "expression of candidate master TFs FOXQ1, FOSL1 and N 2RF2", "setting": "[1]; EZH2i-1 treatment", "result": "re-expressed by EZH2i-1 treatment"}, {"measurement": "Pearson correlation of expression fold-changes induced by EZH2i-1 with those induced by chemotherapy in persister cells", "setting": "[1]; early time points, D33 versus D0", "result": 0.71}, {"measurement": "Pearson correlation of expression fold-changes induced by EZH2i-1 with changes in resistant cells", "setting": "[1]; resistant cells", "result": 0.31}, {"measurement": "number of persister cells", "setting": "[2]", "result": "increased the number of persister cells"}]}
